Assay results reported in ChEMBL document CHEMBL1146010, “Synthesis and in vitro antimycobacterial activity of N1-nicotinoyl-3-(4'-hydroxy-3'-methyl phenyl)-5-[(sub)phenyl]-2-pyrazolines” (2006).
In brackets after ≈: the same amount, converted by molar mass.

System: Mycobacterium tuberculosis
Experiment: Antimycobacterial activity against isoniazid-resistant Mycobacterium tuberculosis by agar dilution method
Type: functional

Row | SMILES | MIC [µM]
1 | Cc1cc(C2=NN(C(=O)c3ccncc3)C(c3cccc([N+](=O)[O-])c3)C2)ccc1O (configuration not stated) | 7.75 (≈ 3.12 µg/mL)
2 | COc1ccc(C2CC(c3ccc(O)c(C)c3)=NN2C(=O)c2ccncc2)c(OC)c1OC (configuration not stated) | 0.87 (≈ 0.389 µg/mL)
3 | Cc1cc(C2=NN(C(=O)c3ccncc3)C(c3ccco3)C2)ccc1O (configuration not stated) | 0.58 (≈ 0.201 µg/mL)
4 | Cc1cc(C2=NN(C(=O)c3ccncc3)C(c3c(Cl)cccc3Cl)C2)ccc1O (configuration not stated) | 0.23 (≈ 0.098 µg/mL)
5 | Cc1cc(C2=NN(C(=O)c3ccncc3)C(c3ccc(Cl)cc3)C2)ccc1O (configuration not stated) | 3.98 (≈ 1.56 µg/mL)
6 | COc1ccc(C2CC(c3ccc(O)c(C)c3)=NN2C(=O)c2ccncc2)cc1 (configuration not stated) | 8.05 (≈ 3.12 µg/mL)
7 | Cc1cc(C2=NN(C(=O)c3ccncc3)C(c3ccccc3)C2)ccc1O (configuration not stated) | 4.36 (≈ 1.56 µg/mL)
8 | COc1ccc(C2CC(c3ccc(O)c(C)c3)=NN2C(=O)c2ccncc2)cc1OC (configuration not stated) | 0.93 (≈ 0.388 µg/mL)
9 | Cc1cc(C2=NN(C(=O)c3ccncc3)C(c3ccc(N(C)C)cc3)C2)ccc1O (configuration not stated) | 1.95 (≈ 0.781 µg/mL)
10 | Cc1cc(C2=NN(C(=O)c3ccncc3)C(c3ccccc3Cl)C2)ccc1O (configuration not stated) | 0.26 (≈ 0.102 µg/mL)
11 | Cc1cc(C2=NN(C(=O)c3ccncc3)C(c3ccc(F)cc3)C2)ccc1O (configuration not stated) | 0.54 (≈ 0.203 µg/mL)
12 | NNC(=O)c1ccncc1 [ISONIAZID] | 11.4 (≈ 1.56 µg/mL)
